In BindingDB's records for doi:10.1021/jm010399h (University of Tennessee Health Science Center, 2002):

Molecular target: Integrase (Human immunodeficiency virus 1, UniProt Q7ZJM1)
Experiment: Inhibitory activity against HIV-1 Integrase (HIV-1-IN)

Sequence of Integrase (Q7ZJM1 whole entry): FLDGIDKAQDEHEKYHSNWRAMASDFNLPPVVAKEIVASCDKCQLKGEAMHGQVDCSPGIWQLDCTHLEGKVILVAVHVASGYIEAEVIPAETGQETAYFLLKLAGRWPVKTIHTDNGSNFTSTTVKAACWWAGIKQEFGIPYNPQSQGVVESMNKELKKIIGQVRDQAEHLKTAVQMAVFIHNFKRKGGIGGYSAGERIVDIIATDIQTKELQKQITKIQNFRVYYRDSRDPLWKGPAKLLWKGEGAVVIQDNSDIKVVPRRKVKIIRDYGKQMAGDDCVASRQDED

For O=C(C=Cc1ccccc1)CC(=O)C=Cc1ccccc1 [5-Hydroxy-1,7-diphenylhepta-1,4,6-trien-3-one], which IC50 is on record?
The IC50 was 100 µM.

How did the IC50 turn out when COc1ccc(C=CC(=O)CC(=O)C=Cc2ccc(OC)c(OC)c2)cc1OC [(1E,4Z,6E)-1,7-bis(3,4-dimethoxyphenyl)-5-hydroxyhepta-1,4,6-trien-3-one] was run?
Its IC50 is 100 µM.
